In patent US20260273025A1, “TREATMENT AND PREVENTION OF OSTEOPOROSIS IN HIGH BODY MASS INDEX INDIVIDUALS” (Radius Health, Inc., priority 2021, published 2026):
Entries after “also recorded” stand apart in the source; their conditions may differ.

Tests used:
[1] = tested on: postmenopausal osteoporotic women; assay: ACTIVE Phase 3 trial, post hoc high BMI subgroup: new vertebral fractures; format: in vivo, human; conditions: overweight population, 18 months; for relative risk reduction of new vertebral fractures versus placebo: abaloparatide 80 μg or teriparatide 20 μg daily subcutaneous
Description: (§1) The ACTIVE pivotal Phase 3 fracture prevention trial for the PTHrP analogue abaloparatide, Study BA058-05-003 (see ClinicalTrials.gov), was a randomized, double-blind, placebo-controlled trial in postmenopausal osteoporotic women randomized to receive daily doses of one of the following for 18 months: 80 micrograms (μg) of abaloparatide; a matching placebo; or the approved daily dose of 20 μg of teriparatide. Treatment with abaloparatide at a daily dose of 80 μg or placebo remained blinded to all parties throughout the study. Teriparatide used was a proprietary prefilled drug and device combination that could not be repackaged. Therefore, its identity could not be blinded to treating physicians and patients once use began. Study medication was self-administered daily by subcutaneous injection for a maximum of 18 months. All enrolled patients also received calcium and vitamin D supplementation from the time of enrollment until the end of the treatment period. It was recommended to patients that they also continue these supplements through the one-month follow-up period.
(§2) The trial completed enrollment in March 2013 with 2,463 patients at 28 medical centers in 10 countries in the United States, Europe, Latin America, and Asia. In a post hoc analysis, a subgroup of overweight patients, patients with high BMI (≥27 kg/m^2, ≥24 kg/m^2 for Asian patients) was evaluated. The baseline characteristics of this sub-group of patients are detailed in Table 1 below.
(§3) The study enrolled otherwise healthy ambulatory women aged 49 to 86 (inclusive) who had been postmenopausal for at least five years, met the study entry criteria, and had provided written informed consent. […] All patients were to be in good general health as determined by medical history, physical examination (including vital signs), and clinical laboratory testing. This study population contained a patient population reflective of the type of severe osteoporosis patients that specialists would be expected to treat in their practices.
The study endpoints included BMD, new vertebral fractures, nonvertebral fractures (fractures excluding those of the spine, sternum, patella, digits, skull, and face and those with high trauma), any clinical fractures (all fractures causing a patient to seek medical care), and major osteoporotic fractures (fractures of the upper arm, wrist, hip, or clinical spine). […] Time to first incident nonvertebral, clinical, major osteoporotic, and wrist fracture assessed using Kaplan-Meier (KM) method; log-rank test (intent-to-treat [ITT] population). Change from baseline BMD evaluated for total hip, femoral neck, and lumbar spine (missing data points imputed by last observation carried forward; ITT population).

[2] = tested on: postmenopausal osteoporotic women; assay: ACTIVE Phase 3 trial, post hoc high BMI subgroup: nonvertebral, clinical, major osteoporotic and wrist fractures (Kaplan-Meier); format: in vivo, human
Description: as §1, §2, §3
(§4) The study endpoints included BMD, new vertebral fractures, nonvertebral fractures (fractures excluding those of the spine, sternum, patella, digits, skull, and face and those with high trauma), any clinical fractures (all fractures causing a patient to seek medical care), and major osteoporotic fractures (fractures of the upper arm, wrist, hip, or clinical spine). New vertebral fracture compared using Fisher exact test (modified intent-to-treat [mITT] population; participants with pretreatment/postbaseline spine x-rays). Time to first incident nonvertebral, clinical, major osteoporotic, and wrist fracture assessed using Kaplan-Meier (KM) method; log-rank test (intent-to-treat [ITT] population). Change from baseline BMD evaluated for total hip, femoral neck, and lumbar spine (missing data points imputed by last observation carried forward; ITT population).

[3] = tested on: postmenopausal osteoporotic women; assay: ACTIVE Phase 3 trial, post hoc high BMI subgroup: BMD percent change from baseline; format: in vivo, human; conditions: for BMD increase as compared to placebo: total hip, femoral neck, lumbar spine
Description: as §1, §2, §3, §4

[4] = tested on: postmenopausal osteoporotic women; assay: ACTIVE Phase 3 trial, post hoc high BMI subgroup: safety, treatment-emergent adverse events; format: in vivo, human; conditions: for Creatine renal clearance increased, (%): human
Description: as §1, §2
Safety evaluations performed in the ACTIVE trial included physical examinations, vital signs, 12-lead electrocardiograms, or ECGs, clinical laboratory tests and monitoring, and recording of adverse events. Specific safety assessments included pre-dose and post-dose (four hours) determination of serum calcium, determination of creatinine clearance, post-dose ECG assessments at selected visits, and assessments of postural hypotension (60 minutes post-dose) at selected clinic visits.
The ACTIVE trial also evaluated several potential safety measures. The treatment-emergent adverse events (TEAEs) reported by the overweight patients are summarized below in Table 2 for groups treated with placebo, abaloparatide, and teriparatide, respectively.

[5] = tested on: subjects treated with abaloparatide; assay: Bone turnover markers PINP and CTX in treated subjects; format: in vivo, human
[6] = tested on: subjects treated with abaloparatide; assay: Trabecular bone score (TBS) in treated subjects; format: in vivo, human
From the text: TBS is also a predictor of fragility fractures of the spine and hip in postmenopausal overweight women independent of BMD and other major clinical risk factors. As such, it captures additional patients at risk of fracture that are missed by BMD alone, and together with BMD more accurately captures bone strength.

[7] = tested on: subjects treated with abaloparatide; assay: Abaloparatide for 18 months followed by anti-resorptive therapy: fracture risk; format: in vivo, human; conditions: abaloparatide 18 months followed by anti-resorptive therapy (e.g., alendronate for 6 months)
[8] = tested on: ovariectomy-induced osteopenic rats; conditions: cited from earlier work
[9] = tested on: ovariectomy-induced osteopenic monkeys; conditions: cited from earlier work
[10] = overweight population, 18 months
[11] = overweight patients, 6, 12 and 18 months
[12] = overweight patients, abaloparatide n = 262, teriparatide n = 281

CC[C@H](C)[C@H](NC(=O)[C@H](CCC(=O)O)NC(=O)[C@H](CO)NC(=O)[C@@H](NC(=O)[C@@H](N)CO)C(C)C)C(=O)N[C@@H](CCC(N)=O)C(=O)N[C@@H](CC(C)C)C(=O)N[C@@H](CCSC)C(=O)N[C@@H](Cc1cnc[nH]1)C(=O)N[C@@H](CC(N)=O)C(=O)N[C@@H](CC(C)C)C(=O)NCC(=O)N[C@@H](CCCCN)C(=O)N[C@@H](Cc1cnc[nH]1)C(=O)N[C@@H](CC(C)C)C(=O)N[C@@H](CC(N)=O)C(=O)N[C@@H](CO)C(=O)N[C@@H](CCSC)C(=O)N[C@@H](CCC(=O)O)C(=O)N[C@@H](CCCN=C(N)N)C(=O)N[C@H](C(=O)N[C@@H](CCC(=O)O)C(=O)N[C@@H](Cc1c[nH]c2ccccc12)C(=O)N[C@@H](CC(C)C)C(=O)N[C@@H](CCCN=C(N)N)C(=O)N[C@@H](CCCCN)C(=O)N[C@@H](CCCCN)C(=O)N[C@@H](CC(C)C)C(=O)N[C@@H](CCC(N)=O)C(=O)N[C@@H](CC(=O)O)C(=O)N[C@H](C(=O)N[C@@H](Cc1cnc[nH]1)C(=O)N[C@@H](CC(N)=O)C(=O)N[C@@H](Cc1ccccc1)C(=O)O)C(C)C)C(C)C [Teriparatide, teriparatide]
new vertebral fractures, reduction vs. placebo [1]: significant reduction | relative risk reduction of new vertebral fractures versus placebo [1]: 74% | major osteoporotic fractures (MOF), reduction versus placebo (Kaplan-Meier estimated cumulative incidence) [2, 10]: Significant reduction | non-vertebral fractures (NVF), reduction versus placebo (Kaplan-Meier estimated cumulative incidence) [2, 10]: Significant reduction | delay compared with the abaloparatide group to achieve the same level of BMD increase at total hip and femoral neck ([3]; overweight patients): about 6 months | BMD increase as compared to placebo [3, 11]: significantly greater BMD increase | Creatine renal clearance increased, (%) ([4]; in vivo): (4.6) % | Arthralgia, (%) ([4]; in vivo): (7.1) % | Back pain, (%) ([4]; in vivo): (7.5) % | Discontinuations, (%) ([4]; in vivo): (7.5) % | Dizziness, (%) ([4]; in vivo): (8.2) % | Headache, (%) ([4]; in vivo): (6.8) % | Hypercalciuria, (%) ([4]; in vivo): (9.3) % | Hypertension, (%) ([4]; in vivo): (6.4) % | Nasopharyngitis, (%) ([4]; in vivo): (5.3) % | Nausea, (%) ([4]; in vivo): (3.9) % | Pain in extremity, (%) ([4]; in vivo): (3.6) % | Serious TEAEs, (%) ([4]; in vivo): (13.9) % | ≥1 TEAE, (%) ([4]; in vivo): (89.3) % | Deaths, (%) [4, 12]: (0.4) % | Influenza, (%) [4, 12]: (3.9) % | Upper respiratory tract infection, (%) [4, 12]: (9.6) % | Urinary tract infection, (%) [4, 12]: (6.8) %

abaloparatide
new vertebral fractures, reduction vs. placebo [1]: statistically significant reduction; also recorded: significant risk reduction | relative risk reduction of new vertebral fractures versus placebo [1]: 81% | clinical fractures, reduction versus placebo [2, 10]: statistically significant reduction; also recorded: numerical reduction | major osteoporotic fractures (MOF), reduction versus placebo (Kaplan-Meier estimated cumulative incidence) [2, 10]: statistically significant reduction; also recorded: significant risk reduction | non-vertebral fractures (NVF), reduction versus placebo (Kaplan-Meier estimated cumulative incidence) [2, 10]: statistically significant reduction; also recorded: significant risk reduction | wrist fracture, reduction versus placebo [2, 10]: numerical reduction | effect on NVF, clinical fractures, MOF and wrist fractures compared with teriparatide ([2]; overweight population, all categories): significantly better than teriparatide | risk of major osteoporotic fracture and any clinical fracture, irrespective of baseline fracture probability (FRAX) ([2]; postmenopausal overweight women): significantly decrease | lumbar spine BMD versus placebo ([3]; at 6 months and 12 months): statistically significant increase | lumbar spine BMD ([3]; at 18 months): non-statistically significant BMD increase | BMD increase at total hip as compared to teriparatide [3, 11]: significantly greater BMD increase | BMD increase for lumbar spine as compared to teriparatide ([3]; overweight patients, 6 months): significantly greater BMD increase | BMD increase at the femoral neck as compared to teriparatide ([3]; overweight patients, 12 and 18 months): significantly greater BMD increase | BMD increase as compared to placebo [3, 11]: significant improvements | BMD increase as compared to placebo ([3]; overweight patients, 6, 12 and 18 months, listed as abaloparatide): significantly greater BMD increase | BMD in total hip and femoral neck versus teriparatide or placebo ([3]; treated for 18 months): significant BMD increase | Creatine renal clearance increased, (%) ([4]; in vivo): (5.7) % | Arthralgia, (%) ([4]; in vivo): (9.2) % | Back pain, (%) ([4]; in vivo): (8.0) % | Discontinuations, (%) ([4]; in vivo): (5.7) % | Dizziness, (%) ([4]; in vivo): (11.1) % | Urinary tract infection, (%) ([4]; in vivo): (6.9) % | ≥1 TEAE, (%) ([4]; in vivo): (91.6) % | Deaths, (%) [4, 12]: (0.8) % | Headache, (%) [4, 12]: (5.0) % | Hypercalciuria, (%) [4, 12]: (9.5) % | Hypertension, (%) [4, 12]: (9.5) % | Influenza, (%) [4, 12]: (6.1) % | Nasopharyngitis, (%) [4, 12]: (5.0) % | Nausea, (%) [4, 12]: (6.1) % | Pain in extremity, (%) [4, 12]: (6.9) % | Serious TEAEs, (%) [4, 12]: (13.7) % | Upper respiratory tract infection, (%) [4, 12]: (8.8) % | CTX marker (bone resorption) ([5]; at 18 months): quick return to the baseline | bone formation marker PINP ([5]; human, in vivo): earlier increase | trabecular bone score (TBS) ([6]; daily dose of 20 μg, 40 μg or 80 μg for 12 weeks to 24 weeks): significantly increase TBS | trabecular bone score (TBS) ([6]; human, in vivo): significant increase | fracture risk versus placebo for 18 months followed by similar anti-resorptive therapy [7]: significant reduction | bone loss [8]: complete reversal of bone loss | bone loss [9]: complete reversal of bone loss
